Measurements published in article PMC3634901 (Bioorganic & medicinal chemistry letters, 2013).
Entries after “also recorded” stand apart in the source; their conditions may differ.

Experiments:
[1] = tested on: retinal endothelial cells; assay: VEGF/TNF-induced retinal endothelial permeability assay; type: cell-based; conditions: dose response; in words
[2] = tested on: aPKC isoforms (PKCζ, PKCι); assay: kinase potency against aPKC isoforms; conditions: without discrimination for PKCζ or PKCι; in words
AGC kinases = conditions: panel of 20 AGC kinases; cited from earlier work
Erk activation = conditions: endothelial cells; cited from earlier work
Akt activation = conditions: endothelial cells; cited from earlier work
[3] = tested on: TNF-induced NFκB activation; type: cell-based; conditions: single dose of 0.1 μM; in words

Row | Structure (SMILES) | efficacy in preventing TNF/VEGF-induced endothelial permeability [1] | potency against aPKC isoforms [2] | specificity towards aPKC isoforms versus AGC family members (AGC kinases) | block of VEGF-induced Erk activation (Erk activation) | block of VEGF-induced Akt activation (Akt activation) | inhibition of TNF-induced NFκB activity [3]
1 | CCOC(=O)c1c(-c2ccc(N(C)C)cc2)csc1N [compound 30] | good efficacy | low micromolar to high nanomolar potency |  |  |  | 
2 | COc1ccc(-c2csc(N)c2C(=O)OC(C)C)cc1OC [compound 6] | good efficacy | low micromolar to high nanomolar potency | high degree of specificity; also recorded: excellent selectivity | does not block | does not block | 
3 | COc1ccc(-c2csc(N)c2C(=O)OCc2ccccc2)cc1OC [compound 10] |  |  |  |  |  | significant inhibition
4 | CCOC(=O)c1c(-c2ccc3c(c2)OCO3)csc1N [compound 32] | good efficacy | low micromolar to high nanomolar potency |  |  |  | significant inhibition
5 | CCOC(=O)c1c(-c2ccc(N)cc2)csc1N [compound 29] | good efficacy |  |  |  |  | significant inhibition
6 | COc1cccc(COC(=O)c2c(-c3ccc(OC)c(OC)c3)csc2N)c1 [compound 14] |  | low micromolar to high nanomolar potency |  |  |  | significant inhibition
